Measured values published in the NIST ThermoML archive (doi:10.1021/je049576k).
Numbers after ± are expanded uncertainties.

Details: 101.33 kPa, Liquid

Row | mass density (298.15 K) [kg/m3] | viscosity (298.15 K) [mPa·s] | mass density (313.15 K) [kg/m3] | viscosity (313.15 K) [mPa·s] | SMILES
1 | 802.2 ± 0.6 | 3.043 ± 0.037 | 789.59 ± 0.61 | 1.791 ± 0.023 | CCC(C)O (configuration not stated) [butan-2-ol]
2 | 1058.62 ± 0.58 | 0.5886 ± 0.0084 | 1039.97 ± 0.56 | 0.4985 ± 0.0074 | C1COCO1 [1,3-dioxolane]
3 | 655.07 ± 0.75 | 0.2951 ± 0.005 | 641.27 ± 0.77 | 0.2552 ± 0.0045 | CCCCCC [hexane]
